Source: patent US6153589A, “2,3-epoxy alcohols, acids and derivatives as anti retroviral chemotherapeutic agents” (The United States of America as represented by the …, priority 1992, dated 2000)
Read-outs that look alike come from different tables or passages of the source. Where a SMILES comes first, the peptide text is derived from it. [ ]: non-standard residue; d: D form. The star is where a group is joined. Sta = CC(C)C[C@H](N)[C@@H](O)CC(=O)O; Isovaleryl = CC(C)CC(=O)*

Key:
[1] = test system: HIV-2 protease; experiment: HIV protease cleavage of nonapeptide (HPLC); format: biochemical; conditions: 0.5 μl of 10 μg/μl inhibitor in DMSO per 10 μl reaction; pH 6.5, room temperature; pentapeptide product relative to DMSO control; sampled at ca. 16 and 40 hr (time not given)
Protocol: Activity Against HIV Protease
The assay for proteolyic activity is a modified version of that previously described by Copeland et al., Gene Anal. Tech., 5:109-115 (1988). For each assay to be performed 2 microliters of protease solution (ca. 100 ng) is added to 3 μg of nonapeptide (Val-Ser-Gln-Asn-Tyr-Pro-Ile-Val-Gln-NH2) in 8 μl of 200 mM sodium phosphate, 1 M NaCl, 5% glycerol, 0.25% Nonidet-40, at pH 6.5. This affords a stock solution containing 10 μl per number of reactions. This stock is aliquoted out in 10 μl portions to which 0.5 μl of DMSO (a control is run with each set of assays to compensate for minor experimental variations) or a DMSO solution containing 10 μg/μl of an inhibitor, i.e., any one of the compounds of the present invention, is added. The reactions were incubated at room temperature and 4 μl portions were removed at ca. 16 and 40 hr. intervals. HPLC analysis was performed on a 4.6×250 mm Lichrosorb RP-18 column eluted with a gradient of 0-40% acetonitrile in water (containing 0.05% TFA) over 30 min monitoring absorbance at 206 nm. Progress of the enzymatic cleavage was followed by monitoring the appearance of the pentapeptide (Val-Ser-Gln-Asn-Tyr-OH) cleavage product. The activity is expressed as the amount of the pentapeptide (Val-Ser-Gln-Asn-Tyr-OH) observed relative to the control reaction for that set of assays.
Inhibition of HIV-2 protease

[2] = test system: HIV1 IIIb; experiment: microbe, parasite or virus in culture; format: cell-based; conditions: Human immunodeficiency virus 1, IIIB; for viability at 1 µg/mL: 1 ug/ml; for viability at 10 µg/mL: 10 ug/ml; for viability at 0.1 µg/mL: 0.1 ug/ml; for viability at 48.4 µg/mL: 48.4 ug/ml; for viability at 2.4 µg/mL: 2.4 ug/ml
Description: In-vitro Screening Anti--HIV XTT Assay
This assay, which is available to the public by the National Cancer Institute, utilizes colorimetry based on the production of a colored formazin from a tetrazolium salt by viable cells, to develop a safe, rapid and quantitative measure of HIV cytopathology. The assay is a modification of the previously described screening method for the detection of anti-tumor drug cytotoxicity (D. A. Scudiero, et al, Cancer Res, 48, 4827-4833 (1988)). It involves the plating of susceptible human "host" cells with and without virus in microculture plates, adding various concentrations of the respective test compounds, incubating the plates for seven days, during which time infected, non-drug treated control cells are largely or totally destroyed by the virus. The number of remaining viable cells are determined utilizing a calorimetric endpoint. A beneficial antiviral effect is indicated by a response % grater than the virus kill %, with 100% being optimal.
Anti-viral effect: Response (Viable Cells, determined by colorometric
absorbance of formazan dye produced) as % of uninfected controls
Virus Source: HIV1 IIIb; C, Virus producing H9 cells; V, cell free virus
Virus Kill: Infected untreated cells as % of uninfected cell controls
*: Culture redosed with compound after 3 days

SMILES: CCCCCCC/C=C\CO [Example 3, cis-2-Decen-1-ol]
- Percent Control Cleavage of Nonapeptide HIV-1 Cleavage Site Fragment [1]: 105%

SMILES: CC(C)CC(=O)N[C@H](C(=O)N[C@H](C(=O)N[C@@H](CC(C)C)[C@@H](O)CC(=O)N[C@@H](C)C(=O)N[C@@H](CC(C)C)[C@@H](O)CC(=O)O)C(C)C)C(C)C [Pepstatin A, reference compound] (Isovaleryl-VV[Sta]A[Sta]-OH)
- Percent Control Cleavage of Nonapeptide HIV-1 Cleavage Site Fragment [1]: 1%

SMILES: OC[C@H]1O[C@H]1COCc1ccccc1 [Example 14, (2R-cis)-3-(Benzyloxymethyl)oxirane Methanol]
- viability at 1 µg/mL ([2]; 168 h, read-out: Antiviral Effect (viable cells as % of uninfected controls), run 6, source V (cell free virus), virus kill 50.0%): 43.5%
- viability at 10 µg/mL ([2]; 168 h, read-out: Antiviral Effect (viable cells as % of uninfected controls), run 7, source V (cell free virus), virus kill 50.0%): 49.5%
- viability at 0.1 µg/mL ([2]; 168 h, read-out: Antiviral Effect (viable cells as % of uninfected controls), run 8, source V (cell free virus), virus kill 16.0%): 17.7%
- viability at 0.1 µg/mL ([2]; 168 h, read-out: Antiviral Effect (viable cells as % of uninfected controls), run 9, source V (cell free virus), virus kill 16.0%): 20.6%
- viability at 4.1 µg/mL ([2]; 168 h, read-out: Antiviral Effect (viable cells as % of uninfected controls), run 10, 4.1 ug/ml, source V (cell free virus), virus kill 29.0%): 28.8%
- viability at 0.004 µg/mL ([2]; 168 h, read-out: Antiviral Effect (viable cells as % of uninfected controls), run 11*, 0.004 ug/ml, source V (cell free virus), virus kill 25.0%, culture redosed with compound after 3 days): 30%
- viability at 0.1 µg/mL ([2]; H9, 168 h, read-out: Antiviral Effect (viable cells as % of uninfected controls), run 1, source C (virus producing H9 cells), virus kill 18.0%): 21.9%
- viability at 10 µg/mL ([2]; H9, 168 h, read-out: Antiviral Effect (viable cells as % of uninfected controls), run 2, source C (virus producing H9 cells), virus kill 17.0%): 53.5%
- viability at 10 µg/mL ([2]; H9, 168 h, read-out: Antiviral Effect (viable cells as % of uninfected controls), run 3, source C (virus producing H9 cells), virus kill 17.0%): 61%
- viability at 0.1 µg/mL ([2]; H9, 168 h, read-out: Antiviral Effect (viable cells as % of uninfected controls), run 4, source C (virus producing H9 cells), virus kill 10.0%): 12.1%
- viability at 10 µg/mL ([2]; H9, 168 h, read-out: Antiviral Effect (viable cells as % of uninfected controls), run 5, source C (virus producing H9 cells), virus kill 10.0%): 10.5%
- Percent Control Cleavage of Nonapeptide HIV-1 Cleavage Site Fragment [1]: 78%

SMILES: OC[C@@H]1O[C@@H]1COCc1ccccc1 [Example 13, (2S-cis)-3-(Benzyloxymethyl)oxirane Methanol]
- viability at 0.1 µg/mL ([2]; 168 h, read-out: Antiviral Effect (viable cells as % of uninfected controls), run 4, source V (cell free virus), virus kill 55.0%): 50%
- viability at 0.1 µg/mL ([2]; 168 h, read-out: Antiviral Effect (viable cells as % of uninfected controls), run 5, source V (cell free virus), virus kill 27.0%): 52.5%
- viability at 4.4 µg/mL ([2]; 168 h, read-out: Antiviral Effect (viable cells as % of uninfected controls), run 6, 4.4 ug/ml, source V (cell free virus), virus kill 24.0%): 28.4%
- viability at 0.44 µg/mL ([2]; 168 h, read-out: Antiviral Effect (viable cells as % of uninfected controls), run 7*, 0.44 ug/ml, source V (cell free virus), virus kill 27.0%, culture redosed with compound after 3 days): 30.1%
- viability at 0.1 µg/mL ([2]; H9, 168 h, read-out: Antiviral Effect (viable cells as % of uninfected controls), run 1, source C (virus producing H9 cells), virus kill 21.0%): 22.1%
- viability at 1 µg/mL ([2]; H9, 168 h, read-out: Antiviral Effect (viable cells as % of uninfected controls), run 2, source C (virus producing H9 cells), virus kill 13.0%): 15.7%
- viability at 1 µg/mL ([2]; H9, 168 h, read-out: Antiviral Effect (viable cells as % of uninfected controls), run 3, source C (virus producing H9 cells), virus kill 11.0%): 10.2%
- Percent Control Cleavage of Nonapeptide HIV-1 Cleavage Site Fragment [1]: 81%

SMILES: CCCCCCCOC[C@@H]1O[C@@H]1CO [Example 18, (2R-cis)-3-(Heptyloxymethyl)oxirane Methanol]
- viability at 9.65 µg/mL ([2]; 168 h, read-out: Antiviral Effect (viable cells as % of uninfected controls), run 4, 9.65 ug/ml, source V (cell free virus), virus kill 40.0%): 58.8%
- viability at 48.4 µg/mL ([2]; 168 h, read-out: Antiviral Effect (viable cells as % of uninfected controls), run 5, source V (cell free virus), virus kill 63.0%): 89.8%
- viability at 48.4 µg/mL ([2]; 168 h, read-out: Antiviral Effect (viable cells as % of uninfected controls), run 6, source V (cell free virus), virus kill 26.0%): 49%
- viability at 2.4 µg/mL ([2]; 168 h, read-out: Antiviral Effect (viable cells as % of uninfected controls), run 7, source V (cell free virus), virus kill 20.0%): 29.4%
- viability at 2.4 µg/mL ([2]; 168 h, read-out: Antiviral Effect (viable cells as % of uninfected controls), run 8*, source V (cell free virus), virus kill 25.0%, culture redosed with compound after 3 days): 40.2%
- viability at 96.5 µg/mL ([2]; H9, 168 h, read-out: Antiviral Effect (viable cells as % of uninfected controls), run 1, 96.5 ug/ml, source C (virus producing H9 cells), virus kill 11.0%): 38.6%
- viability at 48.4 µg/mL ([2]; H9, 168 h, read-out: Antiviral Effect (viable cells as % of uninfected controls), run 2, source C (virus producing H9 cells), virus kill 16.0%): 30.7%
- viability at 4.84 µg/mL ([2]; H9, 168 h, read-out: Antiviral Effect (viable cells as % of uninfected controls), run 3, 4.84 ug/ml, source C (virus producing H9 cells), virus kill 10.0%): 17%
- Percent Control Cleavage of Nonapeptide HIV-1 Cleavage Site Fragment [1]: 71%

SMILES: CCCCCCCCC[C@@H]1O[C@H]1CO [Example 29, (2S-trans)-3-Nonyloxirane Methanol]
- Percent Control Cleavage of Nonapeptide HIV-1 Cleavage Site Fragment [1]: 106%

SMILES: CCCCCCC[C@@H]1O[C@@H]1C(=O)O [Example 38, (2S-cis)-3-Heptyloxiranecarboxylic Acid]
- Percent Control Cleavage of Nonapeptide HIV-1 Cleavage Site Fragment [1]: 105%

SMILES: CCCCCCCCC[C@H]1O[C@H]1C(=O)N(CC)CC [Example 42, N,N-Diethyl-(2R-cis)-3-nonyloxiranecarboxy Amide]
- Percent Control Cleavage of Nonapeptide HIV-1 Cleavage Site Fragment [1]: 77%

SMILES: CCCCCCCCCCC[C@@H]1O[C@@H]1CO (relative stereo) [2-cis-Undecyloxirane methanol]
- Percent Control Cleavage of Nonapeptide HIV-1 Cleavage Site Fragment [1]: 104%

SMILES: CCCCCCCCCCC[C@H]1O[C@@H]1CO [Example 32, (2R-trans)-3-Undecyloxirane Methanol]
- Percent Control Cleavage of Nonapeptide HIV-1 Cleavage Site Fragment [1]: 98%

SMILES: CCCCCCC[C@H]1O[C@@H]1CO [Example 34, (2R-trans)-3-Heptyloxirane Methanol]
- Percent Control Cleavage of Nonapeptide HIV-1 Cleavage Site Fragment [1]: 104%

SMILES: CCCCCCCCC[C@H]1O[C@H]1C(=O)N1CCC[C@H]1C(=O)OC [Example 41, N-(2R-cis)-3-Nonyloxiraneacyl L-proline Methyl Ester]
- Percent Control Cleavage of Nonapeptide HIV-1 Cleavage Site Fragment [1]: 24%

SMILES: CCCCCCCCCCC[C@@H]1O[C@H]1CO [Example 31, (2S-trans)-3-Undecyloxirane Methanol]
- Percent Control Cleavage of Nonapeptide HIV-1 Cleavage Site Fragment [1]: 95%

SMILES: CCCCCCCCC[C@H]1O[C@@H]1CO [Example 30, (2R-trans)-3-Nonyloxirane Methanol]
- Percent Control Cleavage of Nonapeptide HIV-1 Cleavage Site Fragment [1]: 105%

SMILES: CCCCCCCCCCC[C@H]1O[C@@H]1CO (relative stereo) [2-trans-Undecyloxirane methanol]
- Percent Control Cleavage of Nonapeptide HIV-1 Cleavage Site Fragment [1]: 88%

SMILES: CCCCCCC[C@@H]1O[C@H]1CO [Example 33, (2S-trans)-3-heptyloxirane Methanol]
- Percent Control Cleavage of Nonapeptide HIV-1 Cleavage Site Fragment [1]: 105%

SMILES: CCCCCCCCCCCCCC(=O)O [Myristic Acid, reference compound]
- Percent Control Cleavage of Nonapeptide HIV-1 Cleavage Site Fragment [1]: 111%

SMILES: CCCCCCC[C@H]1O[C@H]1C(=O)O [Example 37, (2R-cis)-3-Heptyloxirane Carboxylic Acid]
- Percent Control Cleavage of Nonapeptide HIV-1 Cleavage Site Fragment [1]: 104%

SMILES: CCCCCCC[C@H]1O[C@H]1C (relative stereo) [Example 43, cis-2-Epoxydecene]
- Percent Control Cleavage of Nonapeptide HIV-1 Cleavage Site Fragment [1]: 102%
